Organism: Rattus norvegicus
Test: Open TG-GATES - Regimen: Daily Repeat
Type: toxicity, organism-based, Sprague-Dawley
Design: regimen Daily Repeat, gender Male, age 6 weeks
Details: in vivo, po, 60 mg/kg, route gavage, dose level Middle; for APTT / Bas / Eos / Fbg / Hb / Ht / Lym / MCH / MCHC / MCV / Mono / Neu / PT / Plat / RBC / Ret / WBC: tissue Blood; for KIDNEY_L / KIDNEY_R / KIDNEY_TOTAL: tissue Kidney; for LIVER: tissue Liver; for A/G / ALP / ALT / AST / BUN / CRE / Ca / Cl / DBIL / GLC / IP / K / LDH / Na / PL / RALB / TBIL / TC / TG / TP / gamma-GTP: tissue Plasma

Compound `CC(CN1c2ccccc2Sc2ccccc21)N(C)C` (configuration not stated) [PROMETHAZINE] has a TERMINAL_BW (72 h, time 3 day) of 228.9 g, an APTT (72 h, time 3 day) of 22.4 s and a Bas (72 h, time 3 day) of 0%. The Eos (72 h, time 3 day) was 0.8%, the Fbg (72 h, time 3 day) was 300.8 mg/dL and the Hb (72 h, time 3 day) was 13.3 g/dL. For the same compound, the Ht (72 h, time 3 day) was 40.1%, the Lym (72 h, time 3 day) was 78.8% and the MCH (72 h, time 3 day) was 20.8 pg. For the same compound, the MCHC (72 h, time 3 day) was 33.1%, the MCV (72 h, time 3 day) was 62.8 fL and the Mono (72 h, time 3 day) was 2.4%. The Neu (72 h, time 3 day) was 17%, the PT (72 h, time 3 day) was 16.1 s and the Plat (72 h, time 3 day) was 121.6 x10_4/uL. It also gave an RBC (72 h, time 3 day) of 639.4 x10_4/ul, a Ret (72 h, time 3 day) of 6.1% and a WBC (72 h, time 3 day) of 113.7 x10_2/uL. For the same compound, the KIDNEY_L (72 h, time 3 day) was 1 g, the KIDNEY_R (72 h, time 3 day) was 1 g and the KIDNEY_TOTAL (72 h, time 3 day) was 2 g. It also gave an LIVER (72 h, time 3 day) of 11.7 g, an A/G (72 h, time 3 day) of 1.3 and an ALP (72 h, time 3 day) of 1638.6 IU/L. It also gave an ALT (72 h, time 3 day) of 45.8 IU/L, an AST (72 h, time 3 day) of 74.6 IU/L and a BUN (72 h, time 3 day) of 16.8 mg/dL. The CRE (72 h, time 3 day) was 0.2 mg/dL, the Ca (72 h, time 3 day) was 10.9 mg/dL and the Cl (72 h, time 3 day) was 106.6 meq/L. It also gave a DBIL (72 h, time 3 day) of 0.002 mg/dL, a GLC (72 h, time 3 day) of 184.8 mg/dL and an IP (72 h, time 3 day) of 7 mg/dL. The K (72 h, time 3 day) was 4.3 meq/L, the LDH (72 h, time 3 day) was 158.2 IU/L and the Na (72 h, time 3 day) was 142 meq/L. It also gave a PL (72 h, time 3 day) of 140.8 mg/dL, an RALB (72 h, time 3 day) of 3.1 g/dL and a TBIL (72 h, time 3 day) of 0.008 mg/dL. For the same compound, the TC (72 h, time 3 day) was 73.2 mg/dL, the TG (72 h, time 3 day) was 122.8 mg/dL and the TP (72 h, time 3 day) was 5.5 g/dL. For the same compound, the gamma-GTP (72 h, time 3 day) was 1.4 IU/L, the TERMINAL_BW ([…], time 7 day) was 255.8 g and the TERMINAL_BW ([…], time 14 day) was 294.2 g. It also gave a TERMINAL_BW ([…], time 28 day) of 366.5 g, an APTT ([…], time 7 day) of 23.8 s and a Bas ([…], time 7 day) of 0%. For the same compound, the Eos ([…], time 7 day) was 0.8%, the Fbg ([…], time 7 day) was 293.6 mg/dL and the Hb ([…], time 7 day) was 13.6 g/dL. It also gave a Ht ([…], time 7 day) of 41.2%, a Lym ([…], time 7 day) of 80.4% and an MCH ([…], time 7 day) of 20.2 pg. It also gave an MCHC ([…], time 7 day) of 33.1%, an MCV ([…], time 7 day) of 61.1 fL and a Mono ([…], time 7 day) of 2.8%. For the same compound, the Neu ([…], time 7 day) was 15.2%, the PT ([…], time 7 day) was 15.8 s and the Plat ([…], time 7 day) was 107.7 x10_4/uL. The RBC ([…], time 7 day) was 674.2 x10_4/ul, the Ret ([…], time 7 day) was 5.1% and the WBC ([…], time 7 day) was 158 x10_2/uL. It also gave an APTT ([…], time 14 day) of 25 s, a Bas ([…], time 14 day) of 0% and an Eos ([…], time 14 day) of 1%. The Fbg ([…], time 14 day) was 312.6 mg/dL, the Hb ([…], time 14 day) was 14.2 g/dL and the Ht ([…], time 14 day) was 41.7%. For the same compound, the Lym ([…], time 14 day) was 77.8%, the MCH ([…], time 14 day) was 20.1 pg and the MCHC ([…], time 14 day) was 34%. For the same compound, the MCV ([…], time 14 day) was 59.1 fL, the Mono ([…], time 14 day) was 2% and the Neu ([…], time 14 day) was 18.4%. The PT ([…], time 14 day) was 15.6 s, the Plat ([…], time 14 day) was 111.3 x10_4/uL and the RBC ([…], time 14 day) was 706.4 x10_4/ul. For the same compound, the Ret ([…], time 14 day) was 4.8%, the WBC ([…], time 14 day) was 120.7 x10_2/uL and the APTT ([…], time 28 day) was 25.7 s. The Bas ([…], time 28 day) was 0%, the Eos ([…], time 28 day) was 1% and the Fbg ([…], time 28 day) was 303.6 mg/dL. For the same compound, the Hb ([…], time 28 day) was 15.3 g/dL, the Ht ([…], time 28 day) was 43.8% and the Lym ([…], time 28 day) was 79.2%. It also gave an MCH ([…], time 28 day) of 19.6 pg, an MCHC ([…], time 28 day) of 34.9% and an MCV ([…], time 28 day) of 56.4 fL. It also gave a Mono ([…], time 28 day) of 1.8%, a Neu ([…], time 28 day) of 17.2% and a PT ([…], time 28 day) of 16.3 s. It also gave a Plat ([…], time 28 day) of 96 x10_4/uL, an RBC ([…], time 28 day) of 778.4 x10_4/ul and a Ret ([…], time 28 day) of 2.9%. The WBC ([…], time 28 day) was 96 x10_2/uL, the KIDNEY_L ([…], time 7 day) was 1.1 g and the KIDNEY_R ([…], time 7 day) was 1.1 g. The KIDNEY_TOTAL ([…], time 7 day) was 2.2 g, the KIDNEY_L ([…], time 14 day) was 1.2 g and the KIDNEY_R ([…], time 14 day) was 1.2 g. For the same compound, the KIDNEY_TOTAL ([…], time 14 day) was 2.4 g, the KIDNEY_L ([…], time 28 day) was 1.4 g and the KIDNEY_R ([…], time 28 day) was 1.4 g. It also gave a KIDNEY_TOTAL ([…], time 28 day) of 2.8 g, an LIVER ([…], time 7 day) of 13.5 g and an LIVER ([…], time 14 day) of 14.9 g. It also gave an LIVER ([…], time 28 day) of 17.3 g, an A/G ([…], time 7 day) of 1.2 and an ALP ([…], time 7 day) of 1458.6 IU/L. For the same compound, the ALT ([…], time 7 day) was 44 IU/L, the AST ([…], time 7 day) was 71 IU/L and the BUN ([…], time 7 day) was 20.6 mg/dL. The CRE ([…], time 7 day) was 0.2 mg/dL, the Ca ([…], time 7 day) was 10.7 mg/dL and the Cl ([…], time 7 day) was 106.2 meq/L. The DBIL ([…], time 7 day) was 0 mg/dL, the GLC ([…], time 7 day) was 181.2 mg/dL and the IP ([…], time 7 day) was 7 mg/dL. The K ([…], time 7 day) was 4.4 meq/L, the LDH ([…], time 7 day) was 143.4 IU/L and the Na ([…], time 7 day) was 141.8 meq/L. It also gave a PL ([…], time 7 day) of 144.4 mg/dL, an RALB ([…], time 7 day) of 3 g/dL and a TBIL ([…], time 7 day) of 0.006 mg/dL. It also gave a TC ([…], time 7 day) of 75.4 mg/dL, a TG ([…], time 7 day) of 106.2 mg/dL and a TP ([…], time 7 day) of 5.6 g/dL. It also gave a gamma-GTP ([…], time 7 day) of 2.2 IU/L, an A/G ([…], time 14 day) of 1.2 and an ALP ([…], time 14 day) of 1448 IU/L. The ALT ([…], time 14 day) was 46.6 IU/L, the AST ([…], time 14 day) was 72.2 IU/L and the BUN ([…], time 14 day) was 19 mg/dL. The CRE ([…], time 14 day) was 0.2 mg/dL, the Ca ([…], time 14 day) was 10.9 mg/dL and the Cl ([…], time 14 day) was 106 meq/L. The DBIL ([…], time 14 day) was 0 mg/dL, the GLC ([…], time 14 day) was 182.2 mg/dL and the IP ([…], time 14 day) was 6.9 mg/dL. For the same compound, the K ([…], time 14 day) was 4.1 meq/L, the LDH ([…], time 14 day) was 128.4 IU/L and the Na ([…], time 14 day) was 142.4 meq/L. The PL ([…], time 14 day) was 150.4 mg/dL, the RALB ([…], time 14 day) was 3.2 g/dL and the TBIL ([…], time 14 day) was 0.012 mg/dL. For the same compound, the TC ([…], time 14 day) was 76 mg/dL, the TG ([…], time 14 day) was 128.4 mg/dL and the TP ([…], time 14 day) was 5.9 g/dL. The gamma-GTP ([…], time 14 day) was 2.4 IU/L, the A/G ([…], time 28 day) was 1.1 and the ALP ([…], time 28 day) was 1017.8 IU/L. For the same compound, the ALT ([…], time 28 day) was 49.4 IU/L, the AST ([…], time 28 day) was 69 IU/L and the BUN ([…], time 28 day) was 18.8 mg/dL. The CRE ([…], time 28 day) was 0.2 mg/dL, the Ca ([…], time 28 day) was 10.8 mg/dL and the Cl ([…], time 28 day) was 104 meq/L. For the same compound, the DBIL ([…], time 28 day) was 0 mg/dL, the GLC ([…], time 28 day) was 185.6 mg/dL and the IP ([…], time 28 day) was 7 mg/dL. For the same compound, the K ([…], time 28 day) was 3.7 meq/L, the LDH ([…], time 28 day) was 158 IU/L and the Na ([…], time 28 day) was 143.2 meq/L. For the same compound, the PL ([…], time 28 day) was 152.4 mg/dL, the RALB ([…], time 28 day) was 3.3 g/dL and the TBIL ([…], time 28 day) was 0.026 mg/dL. For the same compound, the TC ([…], time 28 day) was 79 mg/dL, the TG ([…], time 28 day) was 105.2 mg/dL and the TP ([…], time 28 day) was 6.3 g/dL. The gamma-GTP ([…], time 28 day) was 2.2 IU/L.

Source: ChEMBL document CHEMBL3885861, “Open TG-GATES”
